Values quoted from earlier work, collected in PubChem BioAssay AID1259409 (Chemical Carcinogenesis Research Information System (CCRIS), 2018).

System: rodent chemically induced tumor inhibition, incidence and multiplicity
Assay: CCRIS tumor inhibitor studies
Conditions: Carcinogen: 4-(METHYLNITROSAMINO)-1-(3-PYRIDYL)-1-BUTANONE, 64091-91-4, Dose [Inhibitor]: 0, Promoter: NONE USED

## S=C=NCCCCCCc1ccccc1
1 UMOL 1/D FOR 4 D ADMINISTERED PRIOR TO CARCINOGEN TREATMENT (STUDY DURATION: 116 D), Route [Inhibitor]: GAVAGE, Species: MOUSE, Strain/Sex: STRAIN A, Target Tissue: Type of Lesion: LUNG: ADENOMA, Dose [Carcinogen]: 10 UMOL ONCE 2 HR AFTER FINAL DOSE OF INHIBITOR
  tumour outcome (control, treated, inhibition, significance): 100%, 0%, 100%, p<0.05
5 UMOL 1/D FOR 4 D ADMINISTERED PRIOR TO CARCINOGEN TREATMENT (STUDY DURATION: 116 D), Route [Inhibitor]: GAVAGE, Species: MOUSE, Strain/Sex: STRAIN A, Target Tissue: Type of Lesion: LUNG: ADENOMA, Dose [Carcinogen]: 10 UMOL ONCE 2 HR AFTER FINAL DOSE OF INHIBITOR
  tumour outcome (control, treated, inhibition, significance): 100%, 5%, 95%, p<0.05
0.04 UMOL ONCE 2 HR PRIOR TO CARCINOGEN DOSE (STUDY DURATION: 16 WK), Route [Inhibitor]: GAVAGE, Species: MOUSE, Strain/Sex: STRAIN-A/FEMALE, Target Tissue: Type of Lesion: LUNG: ADENOMA, Dose [Carcinogen]: 10 UMOL IN 0.1 ML SALINE ONCE
  tumour outcome (control, treated, inhibition, significance): 100%, 100%, 0%, not significant
0.1 UMOL ONCE 2 HR PRIOR TO CARCINOGEN DOSE (STUDY DURATION: 16 WK), Route [Inhibitor]: GAVAGE, Species: MOUSE, Strain/Sex: STRAIN-A/FEMALE, Target Tissue: Type of Lesion: LUNG: ADENOMA, Dose [Carcinogen]: 10 UMOL IN 0.1 ML SALINE ONCE
  tumour outcome (control, treated, inhibition, significance): 100%, 100%, 0%, not significant
0.2 UMOL ONCE 2 HR PRIOR TO CARCINOGEN DOSE (STUDY DURATION: 16 WK), Route [Inhibitor]: GAVAGE, Species: MOUSE, Strain/Sex: STRAIN-A/FEMALE, Target Tissue: Type of Lesion: LUNG: ADENOMA, Dose [Carcinogen]: 10 UMOL IN 0.1 ML SALINE ONCE
  tumour outcome (control, treated, inhibition, significance): 100%, 100%, 0%, not significant
1 UMOL/G DIET FOR DURATION OF STUDY BEGINNING 1 WK PRIOR TO CARCINOGEN TREATMENT (STUDY DURATION: 112 WK), Route [Inhibitor]: ORAL, Species: RAT, Strain/Sex: F344/MALE, Target Tissue: Type of Lesion: HEMATOPOIETIC SYSTEM: LEUKEMIA OR LYMPHOMA, Dose [Carcinogen]: 2 PPM IN DRINKING WATER FOR 111 WK
  tumour outcome (control, treated, inhibition, significance): 26/56 (46%), 11/57 (19%), 59%, p=0.002
1 UMOL/G DIET FOR DURATION OF STUDY BEGINNING 1 WK PRIOR TO CARCINOGEN TREATMENT (STUDY DURATION: 112 WK), Route [Inhibitor]: ORAL, Species: RAT, Strain/Sex: F344/MALE, Target Tissue: Type of Lesion: LIVER: ADENOMA, Dose [Carcinogen]: 2 PPM IN DRINKING WATER FOR 111 WK
  tumour outcome (control, treated, inhibition, significance): 2/55 (4%), 4/50 (8%), -100%, not significant
1 UMOL/G DIET FOR DURATION OF STUDY BEGINNING 1 WK PRIOR TO CARCINOGEN TREATMENT (STUDY DURATION: 112 WK), Route [Inhibitor]: ORAL, Species: RAT, Strain/Sex: F344/MALE, Target Tissue: Type of Lesion: LIVER: CARCINOMA, Dose [Carcinogen]: 2 PPM IN DRINKING WATER FOR 111 WK
  tumour outcome (control, treated, inhibition, significance): 3/55 (5%), 1/50 (2%), 60%, not significant
1 UMOL/G DIET FOR DURATION OF STUDY BEGINNING 1 WK PRIOR TO CARCINOGEN TREATMENT (STUDY DURATION: 112 WK), Route [Inhibitor]: ORAL, Species: RAT, Strain/Sex: F344/MALE, Target Tissue: Type of Lesion: LUNG: ADENOCARCINOMA, Dose [Carcinogen]: 2 PPM IN DRINKING WATER FOR 111 WK
  tumour outcome (control, treated, inhibition, significance): 23/56 (41%), 9/57 (16%), 61%, p=0.003
1 UMOL/G DIET FOR DURATION OF STUDY BEGINNING 1 WK PRIOR TO CARCINOGEN TREATMENT (STUDY DURATION: 112 WK), Route [Inhibitor]: ORAL, Species: RAT, Strain/Sex: F344/MALE, Target Tissue: Type of Lesion: LUNG: ADENOMA, Dose [Carcinogen]: 2 PPM IN DRINKING WATER FOR 111 WK
  tumour outcome (control, treated, inhibition, significance): 16/56 (29%), 6/57 (11%), 62%, p=0.015
1 UMOL/G DIET FOR DURATION OF STUDY BEGINNING 1 WK PRIOR TO CARCINOGEN TREATMENT (STUDY DURATION: 112 WK), Route [Inhibitor]: ORAL, Species: RAT, Strain/Sex: F344/MALE, Target Tissue: Type of Lesion: NASAL CAVITY: PAPILLOMA OR CARCINOMA, Dose [Carcinogen]: 2 PPM IN DRINKING WATER FOR 111 WK
  tumour outcome (control, treated, inhibition, significance): 1/48 (2%), 2/45 (4%), -100%, not significant
